Experimental data: EPA's ToxValDB 9.5 (doi:10.2903/j.efsa.2010.1931)
≈ marks a conversion by molar mass, not a printed value.

Legend:
Anas platyrhynchos = details: acute; oral; unspecified; mortality
Apis mellifera = details: acute; duration: 48 hours; oral; unspecified; mortality
Daphnia magna = details: chronic/long-term; duration: 21 days; reproduction
Oryctolagus sp. = details: chronic; body weight
Colinus virginianus = details: for LD50: acute, oral, mortality
Oncorhynchus mykiss = details: mortality
Typhlodromus pyri = assay: LR50; higher = less toxic; details: acute; duration: 7 days; mortality

## COCCOc1cccc2c1c(=O)c(C(=O)O)nn2-c1ccc(Cl)cc1
Tagia sp.; acute, duration: 14 days, mortality
  LC50: 20 mg/kg
Tagia sp.; chronic/long-term, reproduction
  NOEC: 20 mg/kg
Anas platyrhynchos
  LD50: > 1440 mg/kg-day
Apis mellifera
  LD50: > 100 µg/piece
Daphnia magna
  NOEC: 7.03 mg/L
Oryctolagus sp.
  NOEL: 125 mg/kg-day
Colinus virginianus; diet
  LD50: > 642 mg/kg-day
Colinus virginianus
  LD50: > 1440 mg/kg-day
Colinus virginianus; reproduction developmental
  NOEL: 119 mg/kg-day
Rattus norvegicus; acute, oral, mortality
  LD50: > 5000 mg/kg-day
Rattus norvegicus; chronic, duration: 2 years, mortality
  NOAEL: 9.1 mg/kg-day
Rattus norvegicus; subchronic, duration: 90 days, oral, histopathology: nonneoplastic
  NOAEL: 16.5 mg/kg-day
Oncorhynchus mykiss; acute, duration: 96 hours
  LC50: 570 µg/mL (≈ 1520 µM)
Oncorhynchus mykiss; chronic/long-term, duration: 28 days
  NOEC: 100 mg/L
Typhlodromus pyri
  LR50: 1460 g/ha
